{"source": "paper PMC5513037", "about": "“Examining the influence of specificity ligands and ATP-competitive ligands on the overall effectiveness of bivalent kinase inhibitors” (Proteome Science, 2017)", "assay_in_all_cases": "KAM-matrix competition in K562 lysate;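 for 0.001 uM KAM: median log10 fold change of treatment over DMSO control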;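 for 0.01 uM KAM: median log10 fold change of treatment over DMSO control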;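 for 0.1 uM KAM: median log10 fold change of treatment over DMSO control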;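 for 1 uM KAM: median log10 fold change of treatment over DMSO control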;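 for 10 uM KAM: median log10 fold change of treatment over DMSO control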", "format_in_all_cases": "binding", "key": {"MYO3A": {"biological_target": "T1, MYO3A (Homo sapiens, UniProt Q8NEV4)", "T1 construct": "endogenous in cells; host or cells: K562", "description": "(§1) Supplement 12953_2017_125_MOESM1_ESM.zip/MS_Supp Info.xlsx, sheet \"KAM\" | column: 10 uM KAM; 1 uM KAM; 0.1 uM KAM; 0.01 uM KAM; 0.001 uM KAM; RB50"}, "PAK4": {"biological_target": "T2, PAK4 (Homo sapiens, UniProt O96013)", "T2 construct": "endogenous in cells; host or cells: K562", "T2 sequence (O96013 whole entry)": "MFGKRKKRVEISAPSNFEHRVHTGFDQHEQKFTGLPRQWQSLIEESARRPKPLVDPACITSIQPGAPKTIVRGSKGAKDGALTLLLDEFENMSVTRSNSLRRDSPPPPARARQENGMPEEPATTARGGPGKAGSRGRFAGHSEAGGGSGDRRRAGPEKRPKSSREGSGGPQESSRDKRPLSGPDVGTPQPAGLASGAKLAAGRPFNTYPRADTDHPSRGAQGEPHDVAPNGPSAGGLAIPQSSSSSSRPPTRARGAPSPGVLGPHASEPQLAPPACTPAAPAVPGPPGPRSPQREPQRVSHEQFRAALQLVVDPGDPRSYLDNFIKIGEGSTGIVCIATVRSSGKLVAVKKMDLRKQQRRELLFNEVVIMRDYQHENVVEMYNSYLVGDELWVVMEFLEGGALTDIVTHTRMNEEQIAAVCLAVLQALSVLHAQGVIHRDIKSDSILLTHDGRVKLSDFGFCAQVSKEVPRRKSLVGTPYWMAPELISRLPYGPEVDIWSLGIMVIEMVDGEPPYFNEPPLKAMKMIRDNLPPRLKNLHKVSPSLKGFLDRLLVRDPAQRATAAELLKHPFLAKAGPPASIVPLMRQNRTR", "description": "as §1"}, "PKN2": {"biological_target": "T3, PKN2 (Homo sapiens, UniProt Q16513)", "T3 construct": "endogenous in cells; host or cells: K562", "T3 sequence (Q16513 whole entry)": "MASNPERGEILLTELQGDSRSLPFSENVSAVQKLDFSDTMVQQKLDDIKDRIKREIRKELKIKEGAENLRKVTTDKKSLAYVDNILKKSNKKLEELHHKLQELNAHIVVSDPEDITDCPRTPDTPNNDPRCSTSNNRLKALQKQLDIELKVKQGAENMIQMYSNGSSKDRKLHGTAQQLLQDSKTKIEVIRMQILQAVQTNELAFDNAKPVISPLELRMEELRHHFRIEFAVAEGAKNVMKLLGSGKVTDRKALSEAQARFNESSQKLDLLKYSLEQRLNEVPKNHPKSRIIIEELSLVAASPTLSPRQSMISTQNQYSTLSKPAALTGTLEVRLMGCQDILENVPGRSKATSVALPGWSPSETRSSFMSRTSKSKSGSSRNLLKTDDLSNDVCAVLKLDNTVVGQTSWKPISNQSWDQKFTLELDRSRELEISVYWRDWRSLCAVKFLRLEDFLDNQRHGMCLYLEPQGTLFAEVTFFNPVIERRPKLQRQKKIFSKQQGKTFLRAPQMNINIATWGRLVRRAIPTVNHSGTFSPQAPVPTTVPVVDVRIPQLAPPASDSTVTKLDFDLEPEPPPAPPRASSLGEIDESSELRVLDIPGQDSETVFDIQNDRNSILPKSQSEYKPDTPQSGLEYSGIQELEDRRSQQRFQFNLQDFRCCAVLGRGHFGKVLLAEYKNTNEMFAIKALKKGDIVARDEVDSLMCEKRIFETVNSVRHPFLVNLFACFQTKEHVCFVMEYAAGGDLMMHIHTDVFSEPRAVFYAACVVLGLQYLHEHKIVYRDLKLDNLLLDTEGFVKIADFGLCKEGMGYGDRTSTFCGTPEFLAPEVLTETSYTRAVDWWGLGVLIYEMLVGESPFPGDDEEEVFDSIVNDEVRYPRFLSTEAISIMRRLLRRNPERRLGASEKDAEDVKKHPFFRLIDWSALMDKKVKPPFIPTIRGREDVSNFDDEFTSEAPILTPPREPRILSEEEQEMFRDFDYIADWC", "description": "as §1"}, "NME7": {"biological_target": "T4, NME7 (Homo sapiens, UniProt Q9Y5B8)", "T4 construct": "endogenous in cells; host or cells: K562", "T4 sequence (Q9Y5B8 1-376)": "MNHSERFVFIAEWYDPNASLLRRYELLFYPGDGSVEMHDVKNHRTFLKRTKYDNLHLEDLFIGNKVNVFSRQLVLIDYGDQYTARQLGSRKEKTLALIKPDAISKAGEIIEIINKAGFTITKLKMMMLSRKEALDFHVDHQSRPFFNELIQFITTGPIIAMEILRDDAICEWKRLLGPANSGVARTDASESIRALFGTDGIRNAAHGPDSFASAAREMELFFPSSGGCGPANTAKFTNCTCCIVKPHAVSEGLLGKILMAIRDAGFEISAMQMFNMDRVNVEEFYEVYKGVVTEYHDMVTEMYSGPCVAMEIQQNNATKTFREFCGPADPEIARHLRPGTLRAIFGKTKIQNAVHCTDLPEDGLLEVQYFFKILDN", "description": "as §1"}, "PDPK1": {"biological_target": "T5, PDPK1 (Homo sapiens, UniProt O15530)", "T5 construct": "endogenous in cells; host or cells: K562", "T5 sequence (O15530 1-556)": "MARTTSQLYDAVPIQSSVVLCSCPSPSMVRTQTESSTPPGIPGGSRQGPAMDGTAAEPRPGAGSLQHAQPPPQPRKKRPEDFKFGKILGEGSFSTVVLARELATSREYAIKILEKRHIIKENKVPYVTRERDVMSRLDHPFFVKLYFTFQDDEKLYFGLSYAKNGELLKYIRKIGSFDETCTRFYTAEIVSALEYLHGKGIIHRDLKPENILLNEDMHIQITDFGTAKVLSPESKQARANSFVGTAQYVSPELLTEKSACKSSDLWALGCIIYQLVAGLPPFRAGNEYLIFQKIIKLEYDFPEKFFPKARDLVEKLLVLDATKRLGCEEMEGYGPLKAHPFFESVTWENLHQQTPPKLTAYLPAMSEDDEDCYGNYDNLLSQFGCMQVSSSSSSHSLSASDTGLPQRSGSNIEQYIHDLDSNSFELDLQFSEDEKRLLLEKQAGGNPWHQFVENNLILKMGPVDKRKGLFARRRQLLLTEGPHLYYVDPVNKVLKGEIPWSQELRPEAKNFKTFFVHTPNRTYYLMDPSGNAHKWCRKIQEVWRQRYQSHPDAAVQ", "description": "as §1"}, "SPEG": {"biological_target": "T6, SPEG (Homo sapiens, UniProt Q15772)", "T6 construct": "endogenous in cells; host or cells: K562", "T6 sequence (Q15772 whole entry)": "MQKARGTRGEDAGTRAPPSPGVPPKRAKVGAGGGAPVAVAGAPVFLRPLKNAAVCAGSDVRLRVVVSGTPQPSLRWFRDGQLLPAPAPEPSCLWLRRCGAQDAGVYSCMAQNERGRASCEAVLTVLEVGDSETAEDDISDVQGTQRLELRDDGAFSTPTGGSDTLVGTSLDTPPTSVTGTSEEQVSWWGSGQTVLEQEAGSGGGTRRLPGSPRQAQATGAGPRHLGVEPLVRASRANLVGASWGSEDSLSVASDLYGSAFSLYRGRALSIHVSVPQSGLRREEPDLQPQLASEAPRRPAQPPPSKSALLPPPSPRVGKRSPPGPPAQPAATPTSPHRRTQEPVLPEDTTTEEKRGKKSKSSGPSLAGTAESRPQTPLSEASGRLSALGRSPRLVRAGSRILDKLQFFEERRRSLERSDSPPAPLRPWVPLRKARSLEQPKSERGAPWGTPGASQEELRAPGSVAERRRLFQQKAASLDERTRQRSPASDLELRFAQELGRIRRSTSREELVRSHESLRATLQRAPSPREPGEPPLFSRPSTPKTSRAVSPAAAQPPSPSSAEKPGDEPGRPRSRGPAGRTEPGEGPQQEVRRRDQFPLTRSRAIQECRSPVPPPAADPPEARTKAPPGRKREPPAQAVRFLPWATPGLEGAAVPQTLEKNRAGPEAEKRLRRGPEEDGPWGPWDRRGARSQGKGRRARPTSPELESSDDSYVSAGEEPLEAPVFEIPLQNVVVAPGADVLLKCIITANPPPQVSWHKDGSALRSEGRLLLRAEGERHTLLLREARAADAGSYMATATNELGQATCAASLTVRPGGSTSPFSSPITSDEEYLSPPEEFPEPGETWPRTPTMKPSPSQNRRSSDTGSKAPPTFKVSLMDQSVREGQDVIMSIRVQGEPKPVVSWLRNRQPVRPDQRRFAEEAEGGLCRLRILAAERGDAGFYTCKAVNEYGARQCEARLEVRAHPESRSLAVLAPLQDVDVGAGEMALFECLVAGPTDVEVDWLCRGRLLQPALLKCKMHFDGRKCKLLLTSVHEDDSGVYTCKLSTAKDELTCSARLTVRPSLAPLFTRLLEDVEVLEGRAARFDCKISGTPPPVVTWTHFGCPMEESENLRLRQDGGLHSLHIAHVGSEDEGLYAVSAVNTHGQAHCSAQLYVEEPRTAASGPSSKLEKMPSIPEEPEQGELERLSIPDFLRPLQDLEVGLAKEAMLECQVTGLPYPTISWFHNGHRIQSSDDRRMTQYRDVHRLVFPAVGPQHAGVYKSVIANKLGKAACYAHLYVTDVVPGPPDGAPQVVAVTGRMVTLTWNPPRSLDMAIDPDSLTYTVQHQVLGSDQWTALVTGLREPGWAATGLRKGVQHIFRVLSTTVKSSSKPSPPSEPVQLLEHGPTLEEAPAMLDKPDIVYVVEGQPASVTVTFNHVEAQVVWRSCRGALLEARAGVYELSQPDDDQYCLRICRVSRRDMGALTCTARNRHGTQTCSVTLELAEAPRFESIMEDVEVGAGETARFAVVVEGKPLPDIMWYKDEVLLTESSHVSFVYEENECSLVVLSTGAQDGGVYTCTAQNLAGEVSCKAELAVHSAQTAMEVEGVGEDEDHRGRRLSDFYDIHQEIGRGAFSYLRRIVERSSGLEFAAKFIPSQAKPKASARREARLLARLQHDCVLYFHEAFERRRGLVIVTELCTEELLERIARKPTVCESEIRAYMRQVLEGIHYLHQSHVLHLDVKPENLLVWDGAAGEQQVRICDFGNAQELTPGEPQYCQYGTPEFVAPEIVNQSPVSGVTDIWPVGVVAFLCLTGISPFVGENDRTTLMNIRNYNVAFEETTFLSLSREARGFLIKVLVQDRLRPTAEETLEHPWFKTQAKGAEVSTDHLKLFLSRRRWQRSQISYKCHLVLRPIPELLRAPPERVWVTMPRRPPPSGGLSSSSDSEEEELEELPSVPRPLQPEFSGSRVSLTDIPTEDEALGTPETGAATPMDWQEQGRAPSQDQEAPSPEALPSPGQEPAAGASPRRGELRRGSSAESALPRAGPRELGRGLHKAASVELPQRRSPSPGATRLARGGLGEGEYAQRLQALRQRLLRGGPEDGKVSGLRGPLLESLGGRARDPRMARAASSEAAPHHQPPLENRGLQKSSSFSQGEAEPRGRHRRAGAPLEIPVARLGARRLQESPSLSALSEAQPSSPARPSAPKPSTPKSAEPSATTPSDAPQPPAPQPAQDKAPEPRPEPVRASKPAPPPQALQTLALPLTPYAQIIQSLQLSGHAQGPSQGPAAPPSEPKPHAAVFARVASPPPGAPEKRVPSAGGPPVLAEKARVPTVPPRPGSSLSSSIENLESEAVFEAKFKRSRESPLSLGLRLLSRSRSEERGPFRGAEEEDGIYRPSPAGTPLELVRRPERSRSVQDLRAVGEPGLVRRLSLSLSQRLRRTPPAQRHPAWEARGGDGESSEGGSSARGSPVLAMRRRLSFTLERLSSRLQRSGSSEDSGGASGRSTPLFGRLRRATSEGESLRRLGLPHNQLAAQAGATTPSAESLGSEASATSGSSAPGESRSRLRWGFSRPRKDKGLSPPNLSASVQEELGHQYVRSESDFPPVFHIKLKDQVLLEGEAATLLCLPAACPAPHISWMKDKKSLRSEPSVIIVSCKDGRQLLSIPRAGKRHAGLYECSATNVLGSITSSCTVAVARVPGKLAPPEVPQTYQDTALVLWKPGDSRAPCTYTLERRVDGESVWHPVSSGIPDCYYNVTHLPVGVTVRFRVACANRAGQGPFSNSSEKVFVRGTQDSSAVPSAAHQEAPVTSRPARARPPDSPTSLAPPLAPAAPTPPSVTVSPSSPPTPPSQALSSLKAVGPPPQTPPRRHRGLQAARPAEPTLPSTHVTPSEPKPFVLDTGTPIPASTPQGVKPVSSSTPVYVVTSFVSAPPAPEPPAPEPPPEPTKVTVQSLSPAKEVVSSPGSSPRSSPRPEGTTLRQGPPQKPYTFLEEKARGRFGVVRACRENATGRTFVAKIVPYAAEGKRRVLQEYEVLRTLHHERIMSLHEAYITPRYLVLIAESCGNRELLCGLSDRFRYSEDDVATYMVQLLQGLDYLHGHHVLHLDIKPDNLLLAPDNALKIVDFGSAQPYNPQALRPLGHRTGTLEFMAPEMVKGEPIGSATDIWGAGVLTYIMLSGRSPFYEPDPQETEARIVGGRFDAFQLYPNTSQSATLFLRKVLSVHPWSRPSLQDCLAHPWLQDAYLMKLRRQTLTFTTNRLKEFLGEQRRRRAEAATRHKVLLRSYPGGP", "description": "as §1"}, "PHKG2": {"biological_target": "T7, PHKG2 (Homo sapiens, UniProt P15735)", "T7 construct": "endogenous in cells; host or cells: K562 cell lysate", "T7 sequence (P15735 1-406)": "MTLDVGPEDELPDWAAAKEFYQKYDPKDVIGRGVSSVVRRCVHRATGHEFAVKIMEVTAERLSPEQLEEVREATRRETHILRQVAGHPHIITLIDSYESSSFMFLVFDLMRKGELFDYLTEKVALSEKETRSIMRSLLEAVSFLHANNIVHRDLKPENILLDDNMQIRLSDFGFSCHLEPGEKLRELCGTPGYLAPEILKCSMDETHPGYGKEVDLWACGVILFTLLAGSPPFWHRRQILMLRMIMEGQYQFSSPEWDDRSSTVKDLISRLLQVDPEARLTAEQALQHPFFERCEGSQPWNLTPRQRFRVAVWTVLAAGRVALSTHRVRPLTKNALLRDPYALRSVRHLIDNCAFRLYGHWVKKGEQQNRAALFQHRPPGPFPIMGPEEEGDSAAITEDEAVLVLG", "description": "as §1"}, "[1]": {"settings": "KAM 0.001-10 uM, read-out: RB50 (the source's name)"}, "[2]": {"settings": "read-out: RB50 (the source's name)"}}, "data": [{"smiles": "N#CCc1ccc(Nc2nc(NCCCN)cc(Nc3cc(C4CC4)[nH]n3)n2)cc1", "note": "[KAM]", "values": [{"measurement": "IC50", "setting": "MYO3A; [1]", "value": "> 10", "unit": "µM"}, {"measurement": "0.001 uM KAM", "setting": "MYO3A; relative to 0 uM KAM = 0", "value": -0.00983}, {"measurement": "0.01 uM KAM", "setting": "MYO3A; relative to 0 uM KAM = 0", "value": 0.0682}, {"measurement": "0.1 uM KAM", "setting": "MYO3A; relative to 0 uM KAM = 0", "value": 0.01204}, {"measurement": "1 uM KAM", "setting": "MYO3A; relative to 0 uM KAM = 0", "value": 0.07454}, {"measurement": "10 uM KAM", "setting": "MYO3A; relative to 0 uM KAM = 0", "value": -0.0706}, {"measurement": "median Log10 fold change", "setting": "PAK4; 0.001 uM KAM", "value": -0.02305}, {"measurement": "median Log10 fold change", "setting": "PAK4; 0.01 uM KAM", "value": -0.006782}, {"measurement": "median Log10 fold change", "setting": "PAK4; 0.1 uM KAM", "value": -0.1812}, {"measurement": "median Log10 fold change", "setting": "PAK4; 1 uM KAM", "value": -0.403}, {"measurement": "median Log10 fold change", "setting": "PAK4; 10 uM KAM", "value": -0.4884}, {"measurement": "IC50", "setting": "PAK4; [2]", "value": 0.527, "unit": "µM"}, {"measurement": "IC50", "setting": "PKN2; [1]", "value": "> 10", "unit": "µM"}, {"measurement": "0.001 uM KAM", "setting": "PKN2; relative to 0 uM KAM = 0", "value": -0.006639}, {"measurement": "0.01 uM KAM", "setting": "PKN2; relative to 0 uM KAM = 0", "value": 0.00337}, {"measurement": "0.1 uM KAM", "setting": "PKN2; relative to 0 uM KAM = 0", "value": -0.04124}, {"measurement": "1 uM KAM", "setting": "PKN2; relative to 0 uM KAM = 0", "value": -0.08858}, {"measurement": "10 uM KAM", "setting": "PKN2; relative to 0 uM KAM = 0", "value": -0.1344}, {"measurement": "IC50", "setting": "NME7; [1]", "value": "> 10", "unit": "µM"}, {"measurement": "0.001 uM KAM", "setting": "NME7; relative to 0 uM KAM = 0", "value": -0.02057}, {"measurement": "0.01 uM KAM", "setting": "NME7; relative to 0 uM KAM = 0", "value": -0.007814}, {"measurement": "0.1 uM KAM", "setting": "NME7; relative to 0 uM KAM = 0", "value": 0.03797}, {"measurement": "1 uM KAM", "setting": "NME7; relative to 0 uM KAM = 0", "value": 0.05362}, {"measurement": "10 uM KAM", "setting": "NME7; relative to 0 uM KAM = 0", "value": 0.03977}, {"measurement": "IC50", "setting": "PDPK1; [1]", "value": "> 10", "unit": "µM"}, {"measurement": "0.001 uM KAM", "setting": "PDPK1; relative to 0 uM KAM = 0", "value": -0.001927}, {"measurement": "0.01 uM KAM", "setting": "PDPK1; relative to 0 uM KAM = 0", "value": -0.01199}, {"measurement": "0.1 uM KAM", "setting": "PDPK1; relative to 0 uM KAM = 0", "value": -0.03413}, {"measurement": "1 uM KAM", "setting": "PDPK1; relative to 0 uM KAM = 0", "value": -0.1736}, {"measurement": "10 uM KAM", "setting": "PDPK1; relative to 0 uM KAM = 0", "value": -0.2461}, {"measurement": "IC50", "setting": "SPEG; [1]", "value": "> 10", "unit": "µM"}, {"measurement": "0.001 uM KAM", "setting": "SPEG; relative to 0 uM KAM = 0", "value": -0.04699}, {"measurement": "0.01 uM KAM", "setting": "SPEG; relative to 0 uM KAM = 0", "value": 0.03576}, {"measurement": "0.1 uM KAM", "setting": "SPEG; relative to 0 uM KAM = 0", "value": -0.007872}, {"measurement": "1 uM KAM", "setting": "SPEG; relative to 0 uM KAM = 0", "value": 0.04064}, {"measurement": "10 uM KAM", "setting": "SPEG; relative to 0 uM KAM = 0", "value": 0.01523}, {"measurement": "median Log10 fold change", "setting": "PHKG2; 0.001 uM KAM", "value": 0.003099}, {"measurement": "median Log10 fold change", "setting": "PHKG2; 0.01 uM KAM", "value": -0.03027}, {"measurement": "median Log10 fold change", "setting": "PHKG2; 0.1 uM KAM", "value": -0.2223}, {"measurement": "median Log10 fold change", "setting": "PHKG2; 1 uM KAM", "value": -0.4221}, {"measurement": "median Log10 fold change", "setting": "PHKG2; 10 uM KAM", "value": -0.5566}, {"measurement": "IC50", "setting": "PHKG2; [2]", "value": 0.338, "unit": "µM"}]}]}
